# Measurements: EP4778922A1, “BICYCLIC COMPOUND, AND PREPARATION METHOD THEREFOR AND PHARMACEUTICAL USE THEREOF” (Shanghai Jeyou Pharmaceutical Co., Ltd., priority 2023, dated 2025)
# pIC50: −log10 of the molar value.
# Test system: 22RV1 cells
# Experiment: Cell proliferation inhibition assay in 22RV1 cells (CellTiter-Glo, 7 days)
# Format: cell-based, human
# Settings: Homo sapiens, 168 h
# Method: • 1. The human prostate cancer cell lines 22RV1 and LNCaP were purchased from ATCC. […] The cell concentration was adjusted to an appropriate concentration (determined based on the results of cell density optimization experiments), and the cells were seeded into a 96-well plate. A 100 µL cell suspension was added, resulting in 3000 cells per well. […] On the second day, for 22Rv1 cells, test compounds at different concentrations were added, and the cells were incubated at 37°C in a 5% CO2 incubator for 7 days; for LNCaP cells, test compounds at different concentrations were added first, and after 1 hour of treatment, 0.2 nM DHT was added. The cells were then incubated at 37°C in a 5% CO2 incubator for 7 days. • 4. After the incubation period, a volume of CellTiter-Glo detection reagent equal to the volume of the culture medium was added to each well. The plate was shaken and mixed thoroughly for 5 minutes, then incubated at room temperature for 10 minutes. Readings were taken using a PerkinElmer EnVision microplate reader. • 5.
# The IC50 curve was fitted and the IC50 value was calculated using the software GraphPad Prism 8 with the calculation formula XY-analysis/Nonlinear regression (curve fit)/Dose response-Inhibition/log (inhibitor) vs. response-Variable slope (four parameters).
row,pIC50,Compound
1,6.07,CC(C)(c1ccc(-c2ccc(OCC3CC(CN4CC5(COC5)C4)C3)cc2)cc1)c1cc(Cl)c(OCCCl)c(C#N)c1 (stereo not shown) [Compound 196]
2,6.28,CC(C)(c1ccc(-c2ccc(OCc3ccnc(N4CC5(C4)CC(F)(F)C5)n3)cc2)cc1)c1cc(Cl)c(OCCCl)c(C#N)c1 [Compound 198]
3,6.00,CC(C)(c1ccc(-c2ccc(OCc3ccnc(N4CC5COCC5C4)n3)cc2)cc1)c1cc(Cl)c(OCCCl)c(C#N)c1 (stereo not shown) [Compound 199]
4,6.24,CC(C)(c1ccc(-c2ccc(OCc3ccnc(N4CCN(S(C)(=O)=O)CC4)n3)cc2)cc1)c1cc(Cl)c(OCCCl)c(C#N)c1 [Compound 200]
5,6.72,CC(C)(c1ccc(-c2ccc(OCc3ccnc(OC4CC5(COC5)C4)n3)cc2)cc1)c1cc(Cl)c(OCCCl)c(C#N)c1 [Compound 201]
6,6.37,CC(C)(c1ccc(-c2ccc(OCCOc3nccc(N=S4(=O)CCOCC4)n3)cc2)cc1)c1cc(Cl)c(OCCCl)c(C#N)c1 [Compound 205]
7,6.00,CC(C)(c1ccc(-c2ccc(OCc3ccnc(N4CC5(C4)CS(=O)(=O)C5)n3)nc2)cc1)c1cc(Cl)c(OCCCl)c(C#N)c1 [Compound 208]
8,6.64,CC(C)(c1ccc(-c2ccc(OCc3ccnc(N4CCC(S(C)(=O)=O)CC4)n3)nc2)cc1)c1cc(Cl)c(OCCCl)c(C#N)c1 [Compound 210]
9,6.41,CC(C)(c1ccc(-c2ccc(OCc3ccnc(N=S4(=O)CCNCC4)n3)nc2)cc1)c1cc(Cl)c(OCCCl)c(C#N)c1 [Compound 211]
10,6.36,CC(C)(c1ccc(-c2ccc(OCC3CN(C4CCOCC4)C3)cc2)cc1)c1cc(Cl)c(OCCCl)c(C#N)c1 [Compound 212]
11,6.37,CC(C)(c1ccc(-c2ccc(OCc3ccnc(N=S4(=O)CCN(CC(F)(F)F)CC4)n3)cc2)cc1)c1cc(Cl)c(OCCCl)c(C#N)c1 [Compound 217]
12,6.43,CC(=O)N1CCS(=O)(=Nc2nccc(COc3ccc(-c4ccc(C(C)(C)c5cc(Cl)c(OCCCl)c(C#N)c5)cc4)cc3)n2)CC1 [Compound 218]
13,6.68,CC(C)(c1ccc(-c2ccc(OCc3ccnc(N=S4(=O)CCN(C(=O)C5CC5)CC4)n3)cc2)cc1)c1cc(Cl)c(OCCCl)c(C#N)c1 [Compound 219]
14,6.77,CC(C)(c1ccc(-c2ccc(OCc3ccnc(N=S4(=O)CCN(S(C)(=O)=O)CC4)n3)cc2)cc1)c1cc(Cl)c(OCCCl)c(C#N)c1 [Compound 220]
15,6.29,CC(C)(c1ccc(-c2ccc(OCc3ccnc(N=S4(=O)CCN(C5COC5)CC4)n3)cc2)cc1)c1cc(Cl)c(OCCCl)c(C#N)c1 [Compound 223]
16,5.88,CC(C)(c1ccc(-c2ccc(OCc3cc(P(C)(C)=O)ccn3)cc2)cc1)c1cc(Cl)c(OCCCl)c(C#N)c1 [Compound 224]
17,6.28,CC(C)(c1ccc(-c2ccc(OCC3CC(N4CC5(C4)CS(=O)(=O)C5)C3)cc2)cc1)c1cc(Cl)c(OCCCl)c(C#N)c1 (stereo not shown) [Compound 230]
18,6.21,CC(C)(c1ccc(-c2ccc(/C=C/c3cnc(N4CC5(C4)CS(=O)(=O)C5)nc3)cc2)cc1)c1cc(Cl)c(OCCCl)c(C#N)c1 [Compound 235]
19,6.00,CC(C)(c1ccc(-c2ccc(OCc3ccnc(N=S4(=O)CCN(CC(F)F)CC4)n3)cc2)cc1)c1cc(Cl)c(OCCCl)c(C#N)c1 [Compound 239]
20,6.19,CC(C)(c1ccc(-c2ccc(C#Cc3ccnc(N=S4(=O)CCCC4)n3)cc2)cc1)c1cnc2c(cnn2CCCl)c1 [Compound 240]
21,6.10,CC(C)(c1ccc(-c2ccc(OCc3ccnc(N=S4(=O)CCN(CCC(F)(F)F)CC4)n3)cc2)cc1)c1cc(Cl)c(OCCCl)c(C#N)c1 [Compound 241]
22,6.07,CC(C)(c1ccc(-c2ccc(OCc3ccnc(N=S4(=O)CCN(C5CC5)CC4)n3)cn2)cc1)c1cc(Cl)c(OCCCl)c(C#N)c1 [Compound 250]
23,6.14,CC(C)(c1ccc(-c2ccc(OCc3ccnc(N=S4(=O)CCN(CC(O)C(F)(F)F)CC4)n3)cc2)cc1)c1cc(Cl)c(OCCCl)c(C#N)c1 (stereo not shown) [Compound 252]
24,6.25,CNC(=O)CN1CCS(=O)(=Nc2nccc(COc3ccc(-c4ccc(C(C)(C)c5cc(Cl)c(OCCCl)c(C#N)c5)cc4)cc3)n2)CC1 [Compound 255]
25,6.08,CC(C)(c1ccc(-c2ccc(OCc3ccnc(N=S4(=O)CCN(CC(F)(F)F)CC4)n3)nc2)cc1)c1cc(Cl)c(OCCCl)c(C#N)c1 [Compound 261]
26,6.27,CC(C)(c1ccc(-c2ccc(OCc3ccnc(N4CCCS4(=O)=O)n3)cc2)cc1)c1cc(Cl)c(OCCCl)c(C#N)c1 [Compound 265]
27,6.11,CC(C)(c1ccc(-c2ccc(OCc3ccnc(N4CCC(S(C)(=O)=O)C4)n3)cc2)cc1)c1cc(Cl)c(OCCCl)c(C#N)c1 (stereo not shown) [Compound 266]
28,6.77,CC(C)(c1ccc(-c2ccc(Oc3ccc(-c4ccnc(P(C)(C)=O)n4)cc3)cc2)cc1)c1cc(Cl)c(OCCCl)c(C#N)c1 [Compound 267]

row,pIC50,Compound
1,6.41,CC(C)(c1ccc(-c2ccc(/C=C\c3cnc(P(C)(C)=O)nc3)c(C#N)c2)cc1)c1cc(Cl)c(OCCCl)c(C#N)c1 [Compound 269]
2,6.05,CC(C)(c1ccc(-c2ccc(Oc3ccc(-c4cnc(P(C)(C)=O)nc4)cc3)cc2)cc1)c1cc(Cl)c(OCCCl)c(C#N)c1 [Compound 270]
3,6.89,CC(C)(c1ccc(-c2cnc(OCc3ccc(-c4cnc(P(C)(C)=O)nc4)cc3)nc2)cc1)c1cc(Cl)c(OCCCl)c(C#N)c1 [Compound 274]
4,6.34,CC(C)(c1ccc(-c2ccc(OCc3ccc(-c4cnc(P(C)(C)=O)nc4)cc3)cn2)cc1)c1cc(Cl)c(OCCCl)c(C#N)c1 [Compound 275]
5,5.88,CC(C)(c1ccc(-c2ccc(OCc3ccc(-c4cnc(P(C)(C)=O)nc4)cc3)nc2)cc1)c1cc(Cl)c(OCCCl)c(C#N)c1 [Compound 277]
6,5.90,CC(C)(c1ccc(-c2ccc(OCc3ccnc(P(C)(C)=O)n3)cc2)cc1)c1cc(F)c2c(cnn2CCCl)c1 [Compound 280]
7,6.30,Cn1ncc2c1CCS(=O)(=Nc1nccc(COc3ccc(-c4ccc(C(C)(C)c5cc(Cl)c(OCCCl)c(C#N)c5)cc4)cc3)n1)C2 (stereo not shown) [Compound 281]
8,6.09,CC(C)(c1ccc(-c2ccc(C#Cc3ncc(P(C)(C)=O)cn3)cc2)cc1)c1cc(Cl)c(OCCCl)c(C#N)c1 [Compound 282]
9,6.68,CC(C)(c1ccc(-c2ccc(OCc3ccnc(N=S4(=O)CCN(CC(O)CC(F)(F)F)CC4)n3)cc2)cc1)c1cc(Cl)c(OCCCl)c(C#N)c1 (stereo not shown) [Compound 285]
10,6.15,CC(C)(c1ccc(-c2ccc(OCc3ccnc(N=S4(=O)CCN(C[C@@H](O)C(F)(F)F)CC4)n3)cc2)cc1)c1cc(Cl)c(OCCCl)c(C#N)c1 [Compound 286]
11,6.17,CC(C)(c1ccc(-c2ccc(OCc3ccnc(N=S4(=O)CCN(C[C@H](O)C(F)(F)F)CC4)n3)cc2)cc1)c1cc(Cl)c(OCCCl)c(C#N)c1 [Compound 287]
12,7.13,CC(C)(c1ccc(-c2ccc(/C=C/c3cnc(N=S4(=O)CCOCC4)nc3)cc2)cc1)c1cc(Cl)c(OCCCl)c(C#N)c1 [Compound 293]
13,6.09,CC(C)(c1ccc(-c2ccc(/C=C/c3ccnc(N=S4(=O)CCOCC4)n3)cc2)cc1)c1cc(Cl)c(OCCCl)c(C#N)c1 [Compound 294]
14,6.32,CC(C)(c1ccc(-c2ccc(OCC3CC(CN4CCS(=O)(=O)CC4)C3)cc2)cc1)c1cc(Cl)c(OCCCl)c(C#N)c1 (stereo not shown) [Compound 296]
15,6.01,CC(C)(c1ccc(-c2ccc(OCCN3CC4(C3)CS(=O)(=O)C4)cc2)cc1)c1cc(Cl)c(OCCCl)c(C#N)c1 [Compound 299]
16,6.31,CC(C)(c1ccc(-c2ccc(OCC3CC(CN4CC5(CCS(=O)(=O)CC5)C4)C3)cc2)cc1)c1cc(Cl)c(OCCCl)c(C#N)c1 (stereo not shown) [Compound 303]
17,6.09,Cc1cc(OCc2ccc(-c3cnc(P(C)(C)=O)nc3)cc2)ccc1-c1ccc(C(C)(C)c2cc(Cl)c(OCCCl)c(C#N)c2)cc1 [Compound 304]
18,6.18,CC(C)(c1ccc(-c2ccc(OCC3CC(CN4CC5(C4)CS(=N)(=O)C5)C3)cc2)cc1)c1cc(Cl)c(OCCCl)c(C#N)c1 (stereo not shown) [Compound 307]
19,6.34,CC(C)(c1ccc(-c2ccc(OCC3CCC(CN4CC5(C4)CS(=O)(=O)C5)CC3)cc2)cc1)c1cc(Cl)c(OCCCl)c(C#N)c1 (stereo not shown) [Compound 309]
20,6.03,CC(C)(c1ccc(-c2ccc(OCC3CN(C(=O)C4CC5(C4)CS(=O)(=O)C5)C3)cc2)cc1)c1cc(Cl)c(OCCCl)c(C#N)c1 [Compound 310]
21,6.27,CC(C)(c1ccc(-c2ccc(OCC3CC(CN4CC5(CCS(=N)(=O)CC5)C4)C3)cc2)cc1)c1cc(Cl)c(OCCCl)c(C#N)c1 (stereo not shown) [Compound 311]
22,6.05,C[C@@H](Cl)COc1c(Cl)cc(C(C)(C)c2ccc(-c3ccc(OCc4ccnc(P(C)(C)=O)n4)cc3)cc2)cc1C#N [Compound 313]
23,5.94,CNC1CN(c2nccc(COc3ccc(-c4ccc(C(C)(C)c5cc(Cl)c(OCCCl)c(C#N)c5)cc4)cc3)n2)C1 [Compound 314]
24,6.17,C[C@H](O)CN1CCS(=O)(=Nc2nccc(COc3ccc(-c4ccc(C(C)(C)c5cc(Cl)c(OCCCl)c(C#N)c5)cc4)cc3)n2)CC1 [Compound 316]
25,6.14,CC(C)(c1ccc(-c2ccc(OCC3CCC(CN4CC5(C4)CS(=N)(=O)C5)CC3)cc2)cc1)c1cc(Cl)c(OCCCl)c(C#N)c1 (stereo not shown) [Compound 318]
26,5.92,CC(C)(c1ccc(-c2ccc(OCC34CC(c5cnc(N6CC(S(C)(=O)=O)C6)nc5)(C3)C4)cc2)cc1)c1cc(Cl)c(OCCCl)c(C#N)c1 [Compound 321]
27,6.52,CC(C)(c1ccc(-c2ccc(OCCN3CCS(=N)(=O)CC3)cc2)cc1)c1cc(Cl)c(OCCCl)c(C#N)c1 [Compound 324]
